Literature values in US20060233842A1, “Microemulsion composition for oral administration of biphenyldimethyldicarboxylate” (priority 2002, published 2006).
Read-outs that look alike come from different tables or passages of the source.

Question: Which “LD50 for acute oral toxicity” value (Gattefosse product profile) does the source give for CCOCCOCCO [transcutol, diethyleneglycol monoethylether] here?
Answer: Its value is 7.95 ml (specific gravity, 0.989)/kg.

Question: For CC(=O)OCC(COC(C)=O)OC(C)=O [triacetine], which “LD50 for acute oral toxicity” value is on record?
Answer: The value was 1.1 g/kg.
